According to ChEMBL document CHEMBL3885861, “Open TG-GATES”:

Species on record: Rattus norvegicus
Assay: Open TG-GATES - Regimen: Daily Repeat
Format: toxicity, organism-based, Sprague-Dawley
Design: regimen Daily Repeat, gender Male, age 6 weeks
Conditions: in vivo, po, 1000 mg/kg, […], route gavage, dose level High; for KIDNEY_L / KIDNEY_R / KIDNEY_TOTAL: tissue Kidney; for LIVER: tissue Liver; for A/G / ALP / ALT / AST / BUN / CRE / Ca / Cl / DBIL / GLC / IP / K / LDH / Na / PL / RALB / TBIL / TC / TG / TP / gamma-GTP: tissue Plasma

Compound `Cc1nnc2n1-c1ccc(Cl)cc1C(c1ccccc1Cl)=NC2` [TRIAZOLAM] has a Lym (tissue Blood, time 28 day) of 76.2%, an MCH (tissue Blood, time 28 day) of 19.7 pg and an MCHC (tissue Blood, time 28 day) of 33.9%. The MCV (tissue Blood, time 28 day) was 58.2 fL, the Mono (tissue Blood, time 28 day) was 2.2% and the Neu (tissue Blood, time 28 day) was 18.4%. It also gave a PT (tissue Blood, time 28 day) of 13.2 s, a Plat (tissue Blood, time 28 day) of 112.9 x10_4/uL and an RBC (tissue Blood, time 28 day) of 776.4 x10_4/ul. The Ret (tissue Blood, time 28 day) was 2.4%, the WBC (tissue Blood, time 28 day) was 103.3 x10_2/uL and the KIDNEY_L (time 7 day) was 1.1 g. For the same compound, the KIDNEY_R (time 7 day) was 1.1 g, the KIDNEY_TOTAL (time 7 day) was 2.3 g and the KIDNEY_L (time 14 day) was 1.3 g. For the same compound, the KIDNEY_R (time 14 day) was 1.3 g, the KIDNEY_TOTAL (time 14 day) was 2.5 g and the KIDNEY_L (time 28 day) was 1.4 g. The KIDNEY_R (time 28 day) was 1.4 g, the KIDNEY_TOTAL (time 28 day) was 2.8 g and the LIVER (time 7 day) was 12.4 g. The LIVER (time 14 day) was 14.2 g, the LIVER (time 28 day) was 15.2 g and the A/G (time 7 day) was 0.9. The ALP (time 7 day) was 1848.4 IU/L, the ALT (time 7 day) was 47.2 IU/L and the AST (time 7 day) was 67.2 IU/L. The BUN (time 7 day) was 15.8 mg/dL, the CRE (time 7 day) was 0.2 mg/dL and the Ca (time 7 day) was 11.2 mg/dL. It also gave a Cl (time 7 day) of 105 meq/L, a DBIL (time 7 day) of 0.014 mg/dL and a GLC (time 7 day) of 176.6 mg/dL. It also gave an IP (time 7 day) of 7.4 mg/dL, a K (time 7 day) of 4.7 meq/L and an LDH (time 7 day) of 86.2 IU/L. It also gave a Na (time 7 day) of 142 meq/L, a PL (time 7 day) of 160.8 mg/dL and an RALB (time 7 day) of 2.7 g/dL. For the same compound, the TBIL (time 7 day) was 0.032 mg/dL, the TC (time 7 day) was 78.6 mg/dL and the TG (time 7 day) was 108.2 mg/dL. It also gave a TP (time 7 day) of 5.7 g/dL, a gamma-GTP (time 7 day) of 1 IU/L and an A/G (time 14 day) of 0.9. For the same compound, the ALP (time 14 day) was 1576.6 IU/L, the ALT (time 14 day) was 48 IU/L and the AST (time 14 day) was 71.6 IU/L. For the same compound, the BUN (time 14 day) was 17.8 mg/dL, the CRE (time 14 day) was 0.2 mg/dL and the Ca (time 14 day) was 10.8 mg/dL. It also gave a Cl (time 14 day) of 103.6 meq/L, a DBIL (time 14 day) of 0.01 mg/dL and a GLC (time 14 day) of 188.4 mg/dL. It also gave an IP (time 14 day) of 7.7 mg/dL, a K (time 14 day) of 4.1 meq/L and an LDH (time 14 day) of 112.2 IU/L. For the same compound, the Na (time 14 day) was 141.8 meq/L, the PL (time 14 day) was 157.6 mg/dL and the RALB (time 14 day) was 2.6 g/dL. It also gave a TBIL (time 14 day) of 0.036 mg/dL, a TC (time 14 day) of 74.8 mg/dL and a TG (time 14 day) of 127.4 mg/dL. For the same compound, the TP (time 14 day) was 5.7 g/dL, the gamma-GTP (time 14 day) was 1 IU/L and the A/G (time 28 day) was 0.8. The ALP (time 28 day) was 950 IU/L, the ALT (time 28 day) was 41.2 IU/L and the AST (time 28 day) was 68.8 IU/L. For the same compound, the BUN (time 28 day) was 15.4 mg/dL, the CRE (time 28 day) was 0.2 mg/dL and the Ca (time 28 day) was 10.5 mg/dL. The Cl (time 28 day) was 105.2 meq/L, the DBIL (time 28 day) was 0.002 mg/dL and the GLC (time 28 day) was 181 mg/dL. It also gave an IP (time 28 day) of 6 mg/dL, a K (time 28 day) of 4 meq/L and an LDH (time 28 day) of 75 IU/L. For the same compound, the Na (time 28 day) was 142.2 meq/L, the PL (time 28 day) was 159.8 mg/dL and the RALB (time 28 day) was 2.8 g/dL. The TBIL (time 28 day) was 0.046 mg/dL, the TC (time 28 day) was 79.8 mg/dL and the TG (time 28 day) was 92 mg/dL. The TP (time 28 day) was 6.1 g/dL and the gamma-GTP (time 28 day) was 1.2 IU/L.
